From the supplement of paper PMC11061612

Legend:
Assay in all cases: combination Emax (second highest fraction inhibited in the dose matrix, 72 h); higher = more inhibition; extreme values may be limits of the assay
[1] = tested on: ASH-3 (Thyroid Gland Carcinoma)
How it was run: (§1)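 Cell lines grown in DMEM/F12 or RPMI with 10% FBS were plated in 1536-well plates and held 24 hours at 37°C, 5% CO2 before 72 hours of exposure to two-drug dose matrices, with DMSO typically at 0.2%. CellTiter-Glo 2.0 luminescence gave viability, which was converted to inhibition. Vehicle wells were set to 0 and blank wells to 1. Combination Emax is the second-highest inhibition in the matrix, and Bliss excess is the observed combination effect minus the expected EA + EB − EA·EB, where EA and EB are the single-agent effects.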

[2] = tested on: DG-75 (Burkitt's Lymphoma)
How it was run: as §1

[3] = tested on: EMC-BAC-2 (Non-Small Cell Lung Carcinoma)
How it was run: as §1

EW-3 (Ewing's Sarcoma) = tested on: EW-3 (Ewing's Sarcoma)
How it was run: as §1

GOTO (Neuroblastoma) = tested on: GOTO (Neuroblastoma)
How it was run: as §1

[4] = tested on: HC-1 (Other Blood Carcinomas)
How it was run: as §1

[5] = tested on: HSC-2 (Oral Cavity Carcinoma)
How it was run: as §1

[6] = tested on: JHH-7 (Hepatocellular Carcinoma)
How it was run: as §1

[7] = tested on: KU-19-19 (Bladder Carcinoma)
How it was run: as §1

[8] = tested on: KYSE-150 (Esophageal Squamous Cell Carcinoma)
How it was run: as §1

[9] = tested on: LC4-1 (B-Lymphoblastic Leukemia)
How it was run: as §1

[10] = tested on: LOU-NH91 (Squamous Cell Lung Carcinoma)
How it was run: as §1

[11] = tested on: NCI-H1573 (Lung Adenocarcinoma)
How it was run: as §1

[12] = tested on: NCI-H2347 (Lung Adenocarcinoma)
How it was run: as §1

[13] = tested on: NCI-H322M (Lung Adenocarcinoma)
How it was run: as §1

[14] = tested on: NCI-H513 (Other Solid Carcinomas)
How it was run: as §1

[15] = tested on: NCI-N87 (Gastric Carcinoma)
How it was run: as §1

NH-12 (Neuroblastoma) = tested on: NH-12 (Neuroblastoma)
How it was run: as §1

[16] = tested on: TGBC11TKB (Gastric Carcinoma)
How it was run: as §1

U-87-MG (Glioblastoma) = tested on: U-87-MG (Glioblastoma)
How it was run: as §1

Row | Compound | combination Emax [1] | combination Emax [2] | combination Emax [3] | combination Emax (EW-3 (Ewing's Sarcoma)) | combination Emax (GOTO (Neuroblastoma)) | combination Emax [4] | combination Emax [5] | combination Emax [6] | combination Emax [7] | combination Emax [8] | combination Emax [9] | combination Emax [10] | combination Emax [11] | combination Emax [12] | combination Emax [13] | combination Emax [14] | combination Emax [15] | combination Emax (NH-12 (Neuroblastoma)) | combination Emax [16] | combination Emax (U-87-MG (Glioblastoma))
1 | COc1cc2ncnc(Nc3ccc(F)c(Cl)c3)c2cc1OCCCN1CCOCC1 [Gefitinib] + CC(C)n1c(=O)n(C)c2cnc3cc(F)c(-c4ccc(OCCCN5CCCCC5)nc4)cc3c21 [AZD1390] (first compound max 10 µM, 7x7, partner max 0.3 µM) | 0.146 | 0.373 | 0.32 | 0.254 | 0.257 | 0.387 | 0.555 | 0.115 | 0.0903 | 0.353 | 0.221 | 0.404 | 0.162 | 0.0611 | 0.718 | 0.268 | 0.845 | 0.121 | 0.296 | 0.0691
2 | COc1nnc2ccc(N3CCC(c4ccc(OCCN5CCN(C)C(=O)[C@H]5C)cc4)CC3)nn12 [AZD5153] + C[C@@H]1COCCN1C2=NC(=NC(=C2)C3(CC3)[S@](=N)(=O)C)C4=C5C=CNC5=NC=C4 [AZD6738] (first compound max 1 µM, 7x7, partner max 10 µM) | 0.852 | 0.909 | 0.816 | 0.851 | 0.979 | 0.713 | 0.79 | 0.324 | 0.685 | 0.746 | 0.975 | 0.871 | 0.709 | 0.525 | 0.865 | 0.523 | 0.766 | 0.938 | 0.801 | 0.698
3 | CC1(C)CCC(CN2CCN(c3ccc(C(=O)NS(=O)(=O)c4ccc(NCC5CCOCC5)c([N+](=O)[O-])c4)c(Oc4cnc5[nH]ccc5c4)c3)CC2)=C(c2ccc(Cl)cc2)C1 [Venetoclax] + Cc1cc2ncnn2cc1Nc1ncc2c(n1)n(C1CCOCC1)c(=O)n2C [AZD7648] (first compound max 1 µM, 7x7, partner max 10 µM) | 0.263 | 0.317 | 0.271 | 0.735 | 0.434 | 0.481 | 0.304 | 0.134 | 0.225 | 0.572 | 1 | 0.264 | 0.173 | 0.194 | 0.414 | 0.297 | 0.354 | 0.538 | 0.133 | 0.354
4 | COc1nnc2ccc(N3CCC(c4ccc(OCCN5CCN(C)C(=O)[C@H]5C)cc4)CC3)nn12 [AZD5153] + Cn1cnc2c(F)c(Nc3ccc(Br)cc3Cl)c(C(=O)NOCCO)cc21 [Selumetinib] (first compound max 1 µM, 7x7, partner max 10 µM) | 0.713 | 0.862 | 0.738 | 0.629 | 0.822 | 0.506 | 0.737 | 0.512 | 1 | 0.661 | 0.975 | 0.63 | 0.755 | 0.6 | 0.726 | 0.499 | 0.567 | 0.729 | 0.683 | 0.698
5 | Cc1nc(Nc2ncc(C(=O)Nc3c(C)cccc3Cl)s2)cc(N2CCN(CCO)CC2)n1 [Dasatinib] + CC(=O)Nc1cccc(-n2c(=O)n(C3CC3)c(=O)c3c(Nc4ccc(I)cc4F)n(C)c(=O)c(C)c32)c1 [Trametinib] (first compound max 2 µM, 7x7, partner max 1 µM) | 0.855 | 0.316 | 0.779 | 0.0371 | 0.398 | 0.494 | 0.804 | 0.306 | 1 | 0.743 | 0.244 | 0.674 | 0.707 | 0.716 | 0.721 | 0.531 | 0.764 | 0.644 | 0.492 | 0.384
